Publication PMC4481117 (Molecular Pain, 2015)

Experiments:
[1] = test system: wild-type HEK293 cells; assay: Translocation of Dyn A into wild-type HEK293 cells (immunolabeling); type: cell-based, Human; conditions: 20 μM Dyn A, 40 min at 37 °C
Experimental: (§1) Fig. 5 Translocation of Dyn A into cells. Mac-1-expressing (a) and wild-type HEK293 (b) cells were incubated with 20 μM and 100 μM of Dyn A for 40 min at 37 °C, fixed, permeabilized and incubated with anti-dynorphin antibodies followed by Alexa Fluor 488-conjugated secondary goat anti-rabbit antibodies. No labeling was detected in the absence of primary antibody. c, Enlarged images of Dyn A-accumulated Mac-1- and wild-type HEK cells shown in a and b. d, Quantification of fluorescent cells shown in a and b
(§2) Mac-1-HEK 293 and wild-type HEK 293 cells were incubated for 10 min with different concentrations (0–100 μM) of Dyn A and allowed to adhere to glass coverslips coated with poly-Lysine for 30 min. Adherent cells were fixed in 2 % paraformaldehyde solution, permeabilized with 0.1 % Tween-20, and blocked with 10 % normal goat serum plus 1 % BSA. The coverslips were incubated with 5 μg/ml polyclonal anti-Dyn A antibody followed by an secondary goat anti-rabbit antibody conjugated to Alexa Fluor 488 (1:1000). Images were taken using a Leica DM 4000B microscope (Leica, Buffalo Grove, IL).

[2] = test system: wild-type macrophages; assay: Transwell migration of wild-type peritoneal macrophages to Dyn A; type: cell-based, mouse; conditions: 10 μM Dyn A, 90 min at 37 °C, TG-elicited
Experimental: (§3) Fig. 6 Migration of Mac-1-expressing cells to Dyn A in a Transwell system. a, Mac-1-expressing HEK 293 cells (100 μl at 3 × 10^6 cell/ml) were added to the upper wells of the transwell chamber and their ability to migrate to different concentrations of Dyn A placed in the lower chamber was analyzed. After 16 hours at 37 °C, migrated cells were fixed, stained, and counted. Data are presented as numbers of migrated cells per field ± S.E. for five random fields per well. The figure is representative of 5 experiments. b, Mac-1-expressing or wild-type HEK 293 cells were added to the upper wells of the transwell chamber and their ability to migrate to 10 μM Dyn A placed in the lower chamber was analyzed as in A. Some Mac-1-HEK293 cells were pretreated with 20 μg/ml of mAbs 44a (anti-αM), IB4 (anti-β2) or OKM1 (non function-blocking anti-αM) or medium alone before addition to the upper wells. ***, medium alone. […] The number of migrated cells was determined as in A. Data are presented as number of migrated cells per field ± S.E. for five random fields per well. […]
(§4) Migration assays with wild-type and Mac-1-expressing HEK293 cells and purified macrophages using Transwell inserts (5 μm pore size) were performed as previously described. […] The photographs were taken using a 20x objective and cells in […] and cells were counted. […]

[3] = test system: Mac-1-HEK293 cells; assay: Translocation of Dyn A into Mac-1-HEK293 cells (immunolabeling); type: cell-based, Human; conditions: 40 min at 37 °C
Experimental: as §1, §2

[4] = test system: wild-type HEK293 cells; assay: Transwell migration of wild-type HEK293 cells to Dyn A; type: cell-based, Human; conditions: 16 h at 37 °C
Experimental: as §3, §4

CC[C@H](C)[C@H](NC(=O)[C@H](CCCNC(=N)N)NC(=O)[C@H](CCCNC(=N)N)NC(=O)[C@H](CC(C)C)NC(=O)[C@H](Cc1ccccc1)NC(=O)CNC(=O)CNC(=O)[C@@H](N)Cc1ccc(O)cc1)C(=O)N[C@@H](CCCNC(=N)N)C(=O)N1CCC[C@H]1C(=O)N[C@@H](CCCCN)C(=O)N[C@@H](CC(C)C)C(=O)N[C@@H](CCCCN)C(=O)N[C@@H](Cc1c[nH]c2ccccc12)C(=O)N[C@@H](CC(=O)O)C(=O)N[C@@H](CC(N)=O)C(=O)N[C@@H](CCC(N)=O)C(=O)O [Dyn A]
Localization of Dyn A in wild-type HEK293 cells [1]: entering inside wild-type HEK293 cells | Migration of wild-type macrophages (in words) [2]: migrated to Dyn A | Localization of Dyn A in Mac-1-HEK293 cells ([3]; 20 μM Dyn A): primarily associated with the cell periphery | Number of Mac-1-HEK293 cells accumulating Dyn A vs wild-type ([3]; Dyn A, anti-dynorphin antibodies): significantly smaller number of Mac-1-HEK293 cells accumulated Dyn A | Migration of wild-type HEK293 cells (in words) [4]: did not migrate
